Source: BigSolDB 2.1

A solubility (mole fraction) (in 2-butanone, 288.15 K) of 0.0341, a solubility (mole fraction) (in 2-butanone, 293.15 K) of 0.0431 and a solubility (mole fraction) (in 2-butanone, 298.15 K) of 0.0513 were found for `CCCCCc1ccc2c(c1)C(=O)c1ccccc1C2=O` in this work. It also gave a solubility (mole fraction) (in 2-butanone, 303.15 K) of 0.0587, a solubility (mole fraction) (in 2-butanone, 308.15 K) of 0.0683 and a solubility (mole fraction) (in 2-butanone, 313.15 K) of 0.0828. The solubility (mole fraction) (in 2-butanone, 318.15 K) was 0.105, the solubility (mole fraction) (in 2-butanone, 323.15 K) was 0.129 and the solubility (mole fraction) (in MIBK, 288.15 K) was 0.0433. It also gave a solubility (mole fraction) (in MIBK, 293.15 K) of 0.0539, a solubility (mole fraction) (in MIBK, 298.15 K) of 0.0601 and a solubility (mole fraction) (in MIBK, 303.15 K) of 0.0676. It also gave a solubility (mole fraction) (in MIBK, 308.15 K) of 0.0744, a solubility (mole fraction) (in MIBK, 313.15 K) of 0.0836 and a solubility (mole fraction) (in MIBK, 318.15 K) of 0.104. The solubility (mole fraction) (in MIBK, 323.15 K) was 0.126, the solubility (mole fraction) (in acetone, 288.15 K) was 0.0225 and the solubility (mole fraction) (in acetone, 293.15 K) was 0.0299. The solubility (mole fraction) (in acetone, 298.15 K) was 0.0376, the solubility (mole fraction) (in acetone, 303.15 K) was 0.0443 and the solubility (mole fraction) (in acetone, 308.15 K) was 0.0517. For the same compound, the solubility (mole fraction) (in acetone, 318.15 K) was 0.0815, the solubility (mole fraction) (in acetone, 323.15 K) was 0.105 and the solubility (mole fraction) (in acetonitrile, 288.15 K) was 0.00299. It also gave a solubility (mole fraction) (in acetonitrile, 293.15 K) of 0.00478, a solubility (mole fraction) (in acetonitrile, 298.15 K) of 0.00811 and a solubility (mole fraction) (in acetonitrile, 303.15 K) of 0.0127. The solubility (mole fraction) (in acetonitrile, 308.15 K) was 0.0203, the solubility (mole fraction) (in acetonitrile, 318.15 K) was 0.051 and the solubility (mole fraction) (in acetonitrile, 323.15 K) was 0.0786. For the same compound, the solubility (mole fraction) (in ethanol, 288.15 K) was 0.0029, the solubility (mole fraction) (in ethanol, 293.15 K) was 0.00392 and the solubility (mole fraction) (in ethanol, 298.15 K) was 0.00531. The solubility (mole fraction) (in ethanol, 303.15 K) was 0.00725, the solubility (mole fraction) (in ethanol, 308.15 K) was 0.00988 and the solubility (mole fraction) (in ethanol, 313.15 K) was 0.0145. It also gave a solubility (mole fraction) (in ethanol, 318.15 K) of 0.0195, a solubility (mole fraction) (in ethanol, 323.15 K) of 0.0265 and a solubility (mole fraction) (in ethyl acetate, 288.15 K) of 0.0501. For the same compound, the solubility (mole fraction) (in ethyl acetate, 293.15 K) was 0.0583, the solubility (mole fraction) (in ethyl acetate, 298.15 K) was 0.0663 and the solubility (mole fraction) (in ethyl acetate, 303.15 K) was 0.0761. It also gave a solubility (mole fraction) (in ethyl acetate, 308.15 K) of 0.088, a solubility (mole fraction) (in ethyl acetate, 313.15 K) of 0.101 and a solubility (mole fraction) (in ethyl acetate, 318.15 K) of 0.12. The solubility (mole fraction) (in ethyl acetate, 323.15 K) was 0.151, the solubility (mole fraction) (in isopropyl acetate, 288.15 K) was 0.0522 and the solubility (mole fraction) (in isopropyl acetate, 293.15 K) was 0.0598. For the same compound, the solubility (mole fraction) (in isopropyl acetate, 298.15 K) was 0.0708, the solubility (mole fraction) (in isopropyl acetate, 303.15 K) was 0.0842 and the solubility (mole fraction) (in isopropyl acetate, 308.15 K) was 0.0974. For the same compound, the solubility (mole fraction) (in isopropyl acetate, 313.15 K) was 0.114, the solubility (mole fraction) (in isopropyl acetate, 318.15 K) was 0.137 and the solubility (mole fraction) (in isopropyl acetate, 323.15 K) was 0.163. For the same compound, the solubility (mole fraction) (in methanol, 288.15 K) was 0.00131, the solubility (mole fraction) (in methanol, 293.15 K) was 0.00199 and the solubility (mole fraction) (in methanol, 298.15 K) was 0.00271. The solubility (mole fraction) (in methanol, 303.15 K) was 0.00364, the solubility (mole fraction) (in methanol, 308.15 K) was 0.00502 and the solubility (mole fraction) (in methanol, 313.15 K) was 0.00682. It also gave a solubility (mole fraction) (in methanol, 318.15 K) of 0.00928, a solubility (mole fraction) (in methanol, 323.15 K) of 0.0131 and a solubility (mole fraction) (in n-butanol, 288.15 K) of 0.00826. For the same compound, the solubility (mole fraction) (in n-butanol, 293.15 K) was 0.0111, the solubility (mole fraction) (in n-butanol, 298.15 K) was 0.0154 and the solubility (mole fraction) (in n-butanol, 303.15 K) was 0.021. The solubility (mole fraction) (in n-butanol, 308.15 K) was 0.0275, the solubility (mole fraction) (in n-butanol, 313.15 K) was 0.0346 and the solubility (mole fraction) (in n-butanol, 318.15 K) was 0.0446. It also gave a solubility (mole fraction) (in n-butanol, 323.15 K) of 0.0626, a solubility (mole fraction) (in n-propanol, 288.15 K) of 0.00541 and a solubility (mole fraction) (in n-propanol, 293.15 K) of 0.00743. It also gave a solubility (mole fraction) (in n-propanol, 298.15 K) of 0.0102, a solubility (mole fraction) (in n-propanol, 303.15 K) of 0.0144 and a solubility (mole fraction) (in n-propanol, 308.15 K) of 0.02. It also gave a solubility (mole fraction) (in n-propanol, 313.15 K) of 0.0265, a solubility (mole fraction) (in n-propanol, 318.15 K) of 0.0346 and a solubility (mole fraction) (in n-propanol, 323.15 K) of 0.049. The solubility (mole fraction) (in sec-butanol, 288.15 K) was 0.00259, the solubility (mole fraction) (in sec-butanol, 293.15 K) was 0.00378 and the solubility (mole fraction) (in sec-butanol, 298.15 K) was 0.0056. For the same compound, the solubility (mole fraction) (in sec-butanol, 303.15 K) was 0.00842, the solubility (mole fraction) (in sec-butanol, 308.15 K) was 0.012 and the solubility (mole fraction) (in sec-butanol, 313.15 K) was 0.0182. It also gave a solubility (mole fraction) (in sec-butanol, 318.15 K) of 0.0257 and a solubility (mole fraction) (in sec-butanol, 323.15 K) of 0.0388.
